Data as given in the supplement of paper PMC11208160.

Assay: recombinant barcode read abundance after kanamycin selection (control-corrected) (log10(CPM+1)); higher = more efficient recombination; sequences stand for … in AGTGCAGAGAAAATCGGCCAGTTTTCTCTGCCTGCAGTCCGCATGCCGT…ATTTATGCAGCGGACTGCCTTTCTCCCAAAGTGATAAACCGGACAGTATCATGGACCGGTTTTCCCGGTAATCCGTATTTGCAAGGTTGGTTTCACT; site = the 11-nt target
Outline: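 Each value is log10(CPM+1). It describes recombination efficiency, taken as averaged, control-corrected counts per million of barcodes at recombinant junctions. The pooled E. coli library paired targets with IS621 bridge RNA target-binding loops, was co-electroporated with a donor plasmid, and was plated twice on chloramphenicol/ampicillin LB agar (control) and twice on chloramphenicol/ampicillin/kanamycin containing 0.1 mM IPTG.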

Point of comparison: “TCGCGACTCTGGGTTCTAACCTGTTGCCGGA [TCGCGACCTCG_LTGcore_TC_RTGcore_TC] (site TCGCGACCTCG) (LTG core: TC, RTG core: TC)”, “recombinant barcode read abundance (log10)” value 0.0969. Against it:
- GGGCGTGCGTGGGTTCTAACCTGTTGCCTAG [GGGCGTGCTAG_LTGcore_CG_RTGcore_CT] (site GGGCGTGCTAG) (LTG core: CG, RTG core: CT) — within 0.2 log units, 0.0925
- GGGCGTGCTTGGGTTCTAACCTGTTGCCTCC [GGGCGTGCTAG_LTGcore_CT_RTGcore_GG] (site GGGCGTGCTAG) (LTG core: CT, RTG core: GG) — higher, 1.53
- GGGCGTGCTTGGGTTCTAACCTGTTGCCTGC [GGGCGTGCTAG_LTGcore_CT_RTGcore_GC] (site GGGCGTGCTAG) (LTG core: CT, RTG core: GC) — higher, 0.847
- GGGCGTGCTTGGGTTCTAACCTGTTGCCTTC [GGGCGTGCTAG_LTGcore_CT_RTGcore_GA] (site GGGCGTGCTAG) (LTG core: CT, RTG core: GA) — higher, 0.564
- GGGCGTGTATGGGTTCTAACCTGTTGCCTAG [GGGCGTGCTAG_LTGcore_TA_RTGcore_CT] (site GGGCGTGCTAG) (LTG core: TA, RTG core: CT) — within 0.2 log units, 0
- GGGCGTGTATGGGTTCTAACCTGTTGCCTTA [GGGCGTGCTAG_LTGcore_TA_RTGcore_TA] (site GGGCGTGCTAG) (LTG core: TA, RTG core: TA) — higher, 0.36
- GGTGCCCCTTGGGTTCTAACCTGTTGCCGAC [GGTGCCCCTCG_LTGcore_CT_RTGcore_GT] (site GGTGCCCCTCG) (LTG core: CT, RTG core: GT) — higher, 0.297
- GGTGCCCCTTGGGTTCTAACCTGTTGCCGTC [GGTGCCCCTCG_LTGcore_CT_RTGcore_GA] (site GGTGCCCCTCG) (LTG core: CT, RTG core: GA) — higher, 0.332
- GGTGCCCGATGGGTTCTAACCTGTTGCCGTC [GGTGCCCCTCG_LTGcore_GA_RTGcore_GA] (site GGTGCCCCTCG) (LTG core: GA, RTG core: GA) — within 0.2 log units, 0.134
- GGTGCCCTCTGGGTTCTAACCTGTTGCCGAG [GGTGCCCCTCG_LTGcore_TC_RTGcore_CT] (site GGTGCCCCTCG) (LTG core: TC, RTG core: CT) — within 0.2 log units, 0.0654
- GTCGCCCAGTGGGTTCTAACCTGTTGCTAAG [GTCGCCCCTTA_LTGcore_AG_RTGcore_CT] (site GTCGCCCCTTA) (LTG core: AG, RTG core: CT) — within 0.2 log units, 0.139
- GTCGCCCAGTGGGTTCTAACCTGTTGCTACT [GTCGCCCCTTA_LTGcore_AG_RTGcore_AG] (site GTCGCCCCTTA) (LTG core: AG, RTG core: AG) — within 0.2 log units, 0.283
- GTCGCCCCATGGGTTCTAACCTGTTGCTATG [GTCGCCCCTTA_LTGcore_CA_RTGcore_CA] (site GTCGCCCCTTA) (LTG core: CA, RTG core: CA) — higher, 0.379
- GTCGCCCCGTGGGTTCTAACCTGTTGCTAAG [GTCGCCCCTTA_LTGcore_CG_RTGcore_CT] (site GTCGCCCCTTA) (LTG core: CG, RTG core: CT) — higher, 0.325
- GTCGCCCCTTGGGTTCTAACCTGTTGCTAGC [GTCGCCCCTTA_LTGcore_CT_RTGcore_GC] (site GTCGCCCCTTA) (LTG core: CT, RTG core: GC) — higher, 0.805
- GTCGCCCGATGGGTTCTAACCTGTTGCTAAG [GTCGCCCCTTA_LTGcore_GA_RTGcore_CT] (site GTCGCCCCTTA) (LTG core: GA, RTG core: CT) — within 0.2 log units, 0
- GTCGCCCGATGGGTTCTAACCTGTTGCTATC [GTCGCCCCTTA_LTGcore_GA_RTGcore_GA] (site GTCGCCCCTTA) (LTG core: GA, RTG core: GA) — within 0.2 log units, 0.103
- GTCGCCCGGTGGGTTCTAACCTGTTGCTACC [GTCGCCCCTTA_LTGcore_GG_RTGcore_GG] (site GTCGCCCCTTA) (LTG core: GG, RTG core: GG) — higher, 0.458
- GTCGCCCGTTGGGTTCTAACCTGTTGCTAAG [GTCGCCCCTTA_LTGcore_GT_RTGcore_CT] (site GTCGCCCCTTA) (LTG core: GT, RTG core: CT) — higher, 0.431
- GTCGCCCTCTGGGTTCTAACCTGTTGCTAGA [GTCGCCCCTTA_LTGcore_TC_RTGcore_TC] (site GTCGCCCCTTA) (LTG core: TC, RTG core: TC) — within 0.2 log units, 0.236
- TAAGAATAATGGGTTCTAACCTGTTGCCTTT [TAAGAATCTAG_LTGcore_AA_RTGcore_AA] (site TAAGAATCTAG) (LTG core: AA, RTG core: AA) — higher, 1.48
- TAAGAATATTGGGTTCTAACCTGTTGCCTAT [TAAGAATCTAG_LTGcore_AT_RTGcore_AT] (site TAAGAATCTAG) (LTG core: AT, RTG core: AT) — within 0.2 log units, 0.141
- TAAGAATCCTGGGTTCTAACCTGTTGCCTAG [TAAGAATCTAG_LTGcore_CC_RTGcore_CT] (site TAAGAATCTAG) (LTG core: CC, RTG core: CT) — within 0.2 log units, 0.193
- TAAGAATCTTGGGTTCTAACCTGTTGCCTCG [TAAGAATCTAG_LTGcore_CT_RTGcore_CG] (site TAAGAATCTAG) (LTG core: CT, RTG core: CG) — higher, 1.61
- TAAGAATCTTGGGTTCTAACCTGTTGCCTCT [TAAGAATCTAG_LTGcore_CT_RTGcore_AG] (site TAAGAATCTAG) (LTG core: CT, RTG core: AG) — higher, 0.422
- TAAGAATCTTGGGTTCTAACCTGTTGCCTGA [TAAGAATCTAG_LTGcore_CT_RTGcore_TC] (site TAAGAATCTAG) (LTG core: CT, RTG core: TC) — within 0.2 log units, 0.145
- TAAGAATCTTGGGTTCTAACCTGTTGCCTTT [TAAGAATCTAG_LTGcore_CT_RTGcore_AA] (site TAAGAATCTAG) (LTG core: CT, RTG core: AA) — higher, 0.421
- TAGAGGGAATGGGTTCTAACCTGTTGCGGTT [TAGAGGGCTCC_LTGcore_AA_RTGcore_AA] (site TAGAGGGCTCC) (LTG core: AA, RTG core: AA) — within 0.2 log units, 0.0221
- TAGAGGGACTGGGTTCTAACCTGTTGCGGGT [TAGAGGGCTCC_LTGcore_AC_RTGcore_AC] (site TAGAGGGCTCC) (LTG core: AC, RTG core: AC) — within 0.2 log units, 0.247
- TAGAGGGCATGGGTTCTAACCTGTTGCGGTG [TAGAGGGCTCC_LTGcore_CA_RTGcore_CA] (site TAGAGGGCTCC) (LTG core: CA, RTG core: CA) — within 0.2 log units, 0.23
- TAGAGGGCTTGGGTTCTAACCTGTTGCGGAG [TAGAGGGCTCC_LTGcore_CT_RTGcore_CT] (site TAGAGGGCTCC) (LTG core: CT, RTG core: CT) — higher, 2.86
- TAGAGGGCTTGGGTTCTAACCTGTTGCGGCC [TAGAGGGCTCC_LTGcore_CT_RTGcore_GG] (site TAGAGGGCTCC) (LTG core: CT, RTG core: GG) — within 0.2 log units, 0.0898
- TAGAGGGCTTGGGTTCTAACCTGTTGCGGGA [TAGAGGGCTCC_LTGcore_CT_RTGcore_TC] (site TAGAGGGCTCC) (LTG core: CT, RTG core: TC) — higher, 0.378
- TAGAGGGCTTGGGTTCTAACCTGTTGCGGGT [TAGAGGGCTCC_LTGcore_CT_RTGcore_AC] (site TAGAGGGCTCC) (LTG core: CT, RTG core: AC) — within 0.2 log units, 0.122
- TAGAGGGCTTGGGTTCTAACCTGTTGCGGTC [TAGAGGGCTCC_LTGcore_CT_RTGcore_GA] (site TAGAGGGCTCC) (LTG core: CT, RTG core: GA) — within 0.2 log units, 0.158
- TAGAGGGCTTGGGTTCTAACCTGTTGCGGTT [TAGAGGGCTCC_LTGcore_CT_RTGcore_AA] (site TAGAGGGCTCC) (LTG core: CT, RTG core: AA) — within 0.2 log units, 0.0916
- TAGAGGGGATGGGTTCTAACCTGTTGCGGAG [TAGAGGGCTCC_LTGcore_GA_RTGcore_CT] (site TAGAGGGCTCC) (LTG core: GA, RTG core: CT) — higher, 0.441
- TCGCGACCATGGGTTCTAACCTGTTGCCGAG [TCGCGACCTCG_LTGcore_CA_RTGcore_CT] (site TCGCGACCTCG) (LTG core: CA, RTG core: CT) — within 0.2 log units, 0.0739
- TCGCGACCTTGGGTTCTAACCTGTTGCCGCG [TCGCGACCTCG_LTGcore_CT_RTGcore_CG] (site TCGCGACCTCG) (LTG core: CT, RTG core: CG) — higher, 0.436
- TCGCGACCTTGGGTTCTAACCTGTTGCCGGA [TCGCGACCTCG_LTGcore_CT_RTGcore_TC] (site TCGCGACCTCG) (LTG core: CT, RTG core: TC) — within 0.2 log units, 0.26
- TCGCGACCTTGGGTTCTAACCTGTTGCCGTA [TCGCGACCTCG_LTGcore_CT_RTGcore_TA] (site TCGCGACCTCG) (LTG core: CT, RTG core: TA) — within 0.2 log units, 0.0883
- TCGCGACTCTGGGTTCTAACCTGTTGCCGAG [TCGCGACCTCG_LTGcore_TC_RTGcore_CT] (site TCGCGACCTCG) (LTG core: TC, RTG core: CT) — within 0.2 log units, 0.0502
- TCGCGACTTTGGGTTCTAACCTGTTGCCGAA [TCGCGACCTCG_LTGcore_TT_RTGcore_TT] (site TCGCGACCTCG) (LTG core: TT, RTG core: TT) — within 0.2 log units, 0
- TCTACCCAATGGGTTCTAACCTGTTGCTGAG [TCTACCCCTCA_LTGcore_AA_RTGcore_CT] (site TCTACCCCTCA) (LTG core: AA, RTG core: CT) — within 0.2 log units, 0.0508
